For series [1] the following is noted: aqueous solution, no net charge; cited from earlier work.
A short description of series [2]: Stabilization with multi-charged species: redissolving the DV-CHX precipitate. In kind it is physicochemical. The conditions noted are these: with significant stirring time. From the text:
Stabilization with Multi-Charged Species: The addition of DV to a solution of CHX causes an immediate precipitation. However, the addition of low levels of surfactants or multi-charged compounds brings both DV and CHX back into solution. The table below lists multiple compounds that help to redissolve the DV-CHX, and what we have found as their lowest effective levels. These solutions are stable from pH 4.9-7. Addition of citric acid to lower the pH to <4.9 causes significant precipitation.

Series [3] concerns mixed species inoculum culture containing: Lactobacillus casei, Streptococcus oralis, Actinomyces viscosus, Veillonella parvula & Fusobacterium nucleatum. In kind it is cell-based. How it is done: Bacterial kill: A 20-second short interval kill test (SIKT) measures the efficacy of various treatment solutions in killing oral pathogens. […] A mixed species inoculum culture containing: Lactobacillus casei, Streptococcus oralis, Actinomyces viscosus, Veillonella parvula & Fusobacterium nucleatum at an optical density of 0.5 @ 610nm is centrifuged. The supernatant is then aspirated off and the remaining pellicle re-suspended in sterile phosphate buffered saline (PBS). 100 ul of this solution is then treated with 100 ul of test sample for 30 or 60 seconds. Immediately following treatment, the exposure is neutralized by adding 1.3 ml of sterile D/E neutralizing broth. The neutralizing broth is then rinsed off by centrifugation and re-suspension in PBS. 50 ul samples are then transferred in triplicate to a 96-well microplate. The fluorescent dyes are then prepared per the manufacturer's directions and added to the samples. The fluorescence is then measured in a fluorescent plate reader. Data from this assay are presented as a percentage of bacterial remaining viable relative to a control sample treated with PBS.

In the case of `NCCCC[C@H](N)C(=O)O` [lysine], the isoelectric point in series [1] is recorded as 9.7 pH.

In the case of `C[N+](C)(C)CC(=O)O` [Betaine], the Lowest effective level in series [2] (added to solution of 0.12% CHX and 1.025 DV (w/w by actives)) is 0.3% for 0.12% CHX; in series [2] (added to solution of 0.2% CHX and 1.025 DV (w/w by actives)), 0.3% for 0.2% CHX.

`CCO` [Dead, ethanol]: the “% viability” value in series [3] is listed as 36.3%.

Source of the values: patent publication US12257334B2, “Oral care compositions” (Colgate-Palmolive Company, priority 2015, dated 2025).
